According to patent US20240207215A1, “MARC1 INHIBITORS FOR TREATMENT OF LIPID METABOLISM DISORDERS” (priority 2020, published 2024):

Tests used:
human mARC1 = target: T1, human mARC1 (Homo sapiens, UniProt Q5VT66); assay: mARC1 three-component system (mARC1, cytochrome b5, cytochrome b5 reductase): conversion of benzamidoxime to benzamidine, NADH consumption at 340 nm / HPLC of benzamidine; type: biochemical; details: recombinant mARC1 + CYB5B + CYB5R3, NADH, substrate BAO, 37° C., MES pH 6.0; FIGS. 1-4 (N-hydroxyurethane and urethane 1 mM in FIGS. 1, 3)
T1 construct: made in house; host or cells: Escherichia coli
T1 sequence (Q5VT66 53-337 limits assumed): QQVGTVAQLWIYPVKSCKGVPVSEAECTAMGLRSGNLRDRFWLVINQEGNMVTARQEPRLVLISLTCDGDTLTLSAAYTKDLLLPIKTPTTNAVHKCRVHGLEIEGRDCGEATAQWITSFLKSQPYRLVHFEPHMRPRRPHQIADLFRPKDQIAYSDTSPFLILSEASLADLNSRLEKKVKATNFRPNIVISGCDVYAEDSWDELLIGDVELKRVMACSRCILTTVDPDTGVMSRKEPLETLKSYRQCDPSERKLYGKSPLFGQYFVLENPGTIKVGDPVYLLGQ
Description: (§1) The compounds N-hydroxyurethane (R1═H, R2═CH2CH3) and ethyl-N-(3-chlorophenyl) -hydroxycarbamate (R1═3-chlorophenyl, R2═CH2CH3) are used as examples of active compounds. FIGS. 1, 3 and 4 show the absorbance at 340 nm in dependence on the time for an incubation with the three-component system mARC1 and mARC2, respectively, cytochrome b5 and cytochrome b5 reductase, which catalyze the conversion of the model substrate benzamidoxime (BAO) to benzamidine in the presence of the cosubstrate NADH (5). The decrease in the concentration of NADH due to its absorption maximum at 340 nm is thereby measured. From the measurement results, which are shown in the bar graph of FIG. 4, the inhibition of the conversion of benzamidoxime to benzamidine is evident by the lower consumption of NADH. NADH represents the required cosubstrate for the conversion. […] The down-regulation is only observed for mARC1 and not for mARC2 (FIG. 2).
(§2) 105 μl MES buffer (20 mM, pH 6.0) was placed in a micro-UV cuvette. […] This batch was then set as a blank sample and the absorbance was zeroed. […] Herein, the absorbance spectrum between 300 nm and 400 nm was recorded every 30 s for a period of 10 min (spectrophotometer Cary® 50 Bio with Walter peltier system PCB 150, Agilent). […] The conversion rates of BAO with and without inhibitor were compared based on the absorbance change at 340 nm to determine the degree of inhibition. […]

human mARC2 = target: T2, human mARC2 (Homo sapiens, UniProt Q969Z3); assay: mARC2 three-component system (mARC2, cytochrome b5, cytochrome b5 reductase): conversion of benzamidoxime to benzamidine, NADH consumption at 340 nm / HPLC of benzamidine; type: biochemical; details: recombinant mARC2 + CYB5B + CYB5R3, NADH, substrate BAO; FIG. 2
T2 construct: made in house; host or cells: Escherichia coli
T2 sequence (Q969Z3 36-335): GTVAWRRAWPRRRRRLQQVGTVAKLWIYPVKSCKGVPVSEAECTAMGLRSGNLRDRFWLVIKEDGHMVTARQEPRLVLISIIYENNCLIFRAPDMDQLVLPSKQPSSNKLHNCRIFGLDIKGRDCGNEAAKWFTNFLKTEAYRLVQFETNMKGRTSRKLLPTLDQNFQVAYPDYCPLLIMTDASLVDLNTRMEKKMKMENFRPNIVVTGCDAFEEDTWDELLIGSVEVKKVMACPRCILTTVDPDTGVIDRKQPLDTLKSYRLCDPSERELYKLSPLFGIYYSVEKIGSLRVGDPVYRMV
Description: as §1, §2

[1] = system: cytochrome b5 and/or cytochrome b5 reductase; assay: Inhibition of the electron transport partners, concluded from the non-inhibited mARC2 conversion; type: biochemical, human; details: concluded from the non-inhibited conversion for mARC2
Description: as §1, §2

Row | SMILES | inhibition of the conversion of benzamidoxime to benzamidine by mARC1 (human mARC1) | down-regulation of the conversion of benzamidoxime to benzamidine by mARC2 (human mARC2) | inhibition of cytochrome b5 and/or cytochrome b5 reductase [1]
1 | CCOC(=O)N(O)c1cccc(Cl)c1 [ethyl-N-(3-chlorophenyl)-hydroxycarbamate] | inhibition occurs | – | –
2 | CCOC(=O)NO [N-hydroxyurethane] | inhibition occurs | not for mARC2 | are not inhibited
